Assay results reported in patent US20220289680A1, “METHODS FOR MAKING DIMERIC NAPHTHALIMIDES AND SOLID STATE FORMS OF THE SAME” (Alucent Biomedical, Inc., priority 2018, published 2022).

How the values were obtained:
Assay type in all cases: physicochemical
[1] = Post-DVS X-ray powder diffraction analysis (solid form stability); conditions: after DVS cycling 5%-95%-5% RH
Text: (§1) The Rigaku Smart-Lab X-ray diffraction system was configured for reflection Bragg-Brentano geometry using a line source X-ray beam. The x-ray source was a Cu Long Fine Focus tube that was operated at 40 kV and 44 ma. That source provided an incident beam profile (at the sample) that changed from a narrow line at high angles to a broad rectangle at low angles. Beam conditioning slits were used on the X-ray source to ensure that the maximum beam size is less than 10 mm, both along the line and normal to the line. The Rigaku Smart-Lab was operated to give peak widths of 0.1 degrees two-theta or less. The axial divergence of the X-ray beam was controlled by 5.0-degree Soller slits in both the incident and diffracted beam paths.
(§2) Powder samples were prepared in a low-background Si holder using light manual pressure to keep the sample surfaces flat and level with the reference surface of the sample holder. Each sample was analyzed from 2 to 40 degrees two-theta using a continuous scan of 6 degrees two-theta per minute, with an effective step size of 0.02 degrees two-theta.
(§3) DVS analysis was carried out using a TA Instruments Q5000 Dynamic Vapor Sorption analyzer. The instrument was calibrated with standard weights and a sodium bromide standard for humidity. Approximately 10-25 mg of sample was loaded into a metal-coated quartz pan for analysis. The sample was analyzed at 25° C. with a maximum equilibration time of one hour in 10% relative humidity (RH) steps from 5% to 95% RH (adsorption cycle) and from 95% to 5% RH (desorption cycle). The movement from one step to the next occurred either after satisfying the equilibrium criterion of 0.01% weight change or, if the equilibrium criterion was not met, after one hour. The percent weight change values were calculated using Microsoft Excel®.

[2] = Dynamic vapor sorption (DVS) analysis; conditions: 25° C.
Description: as §3

[3] = Solubility measurements in various solvents (visual inspection of dissolution); conditions: thermodynamic from solid
Description: The mass of a sample of Compound of Formula (I) was determined, and to that sample was added an aliquot of solvent, as shown in Table 5. Visual inspection was used to determine whether dissolution occurred. The solubility of Compound of Formula (I) in each solvent was calculated by dividing the weight of the sample by the total amount of solvent used to dissolve the sample. Table 6 lists the solubility of Compound of Formula (I) in each solvent.

[4] = Post-heating X-ray powder diffraction analysis (solid form stability); conditions: heated at 80° C. for 20 minutes
Text: as §1, §2
A sample of Form 2 was heated at 80° C. for 20 minutes. After cooling, the sample was analyzed using x-ray powder diffraction.

[5] = sample of Example 3 (synthesized by a method similar to Example 4, Form 1)
[6] = slurry-derived samples of Example 2

## NCCOCCOCCNc1ccc2c3c(cccc13)C(=O)N(CCOCCOCCN1C(=O)c3cccc4c(NCCOCCOCCN)ccc(c34)C1=O)C2=O [Compound of Formula (I), 2,2′-((ethane-1,2-diylbis(oxy))bis(ethane-2,1-diyl))bis(6-((2-(2-(2-aminoethoxy)ethoxy)ethyl)amino)-1H-benzo[de]isoquinoline-1,3(2H)-dione)]
[1]
  XRPD pattern after DVS cycling relative to the same sample prior to DVS analysis: unchanged
[2]; [5]
  DVS weight gain when cycling from 5% to 95% relative humidity: 16.36%
  DVS weight loss upon drying at 5% relative humidity: 0.66%
  DVS weight loss when cycling from 95% to 5% relative humidity: 15.51%
[3]; 1,1,1,3,3,3-hexafluoro-2-propanol (HFIPA), organic solvent or mixture
  solubility: 18 mg/mL
[3]; 1,4-dioxane, organic solvent or mixture
  solubility: < 1 mg/mL
[3]; 2,2,2-trifluoroethanol (TFE), organic solvent or mixture
  solubility: 18 mg/mL
[3]; 2-methyl tetrahydrofuran (2-MeTHF), organic solvent or mixture
  solubility: < 1 mg/mL
[3]; N,N-dimethylformamide (DMF), organic solvent or mixture, N,N-dinnethylformamide (DMF)
  solubility: < 1 mg/mL
[3]; acetone, organic solvent or mixture
  solubility: < 1 mg/mL
[3]; acetone/water (95/5, v/v), organic solvent or mixture
  solubility: < 1 mg/mL
[3]; acetonitrile/water (95/5, v/v), organic solvent or mixture
  solubility: < 1 mg/mL
[3]; dichloromethane (DCM), organic solvent or mixture
  solubility: < 1 mg/mL
[3]; dimethylsulfoxide (DMSO), organic solvent or mixture
  solubility: < 1 mg/mL
[3]; ethanol/water (95/5, v/v), organic solvent or mixture
  solubility: < 1 mg/mL
[3]; methyl ethyl ketone (MEK), organic solvent or mixture
  solubility: < 1 mg/mL
[3]; organic solvent or mixture, 2-propanol (2-PrOH)
  solubility: < 1 mg/mL
[3]; organic solvent or mixture, acetonitrile (CAN)
  solubility: < 1 mg/mL
[3]; organic solvent or mixture, diethyl ether (Et2O)
  solubility: < 1 mg/mL
[3]; organic solvent or mixture, ethanol (EtOH)
  solubility: < 1 mg/mL
[3]; organic solvent or mixture, ethyl acetate (EtOAc)
  solubility: < 1 mg/mL
[3]; organic solvent or mixture, methanol (MeOH)
  solubility: < 1 mg/mL
[3]; tetrahydrofuran (THF), organic solvent or mixture
  solubility: < 1 mg/mL
[3]; tetrahydrofuran/water (95/5, v/v), organic solvent or mixture
  solubility: < 1 mg/mL
[3]; toluene, organic solvent or mixture
  solubility: < 1 mg/mL
[3]; water
  solubility: < 1 mg/mL

## NCCOCCOCCNc1ccc2c3c(cccc13)C(=O)N(CCOCCOCCN1C(=O)c3cccc4c(NCCOCCOCCN)ccc(c34)C1=O)C2=O [Form 1, 2,2′-((ethane-1,2-diylbis(oxy))bis(ethane-2,1-diyl))bis(6-((2-(2-(2-aminoethoxy)ethoxy)ethyl)amino)-1H-benzo[de]isoquinoline-1,3(2H)-dione)]
[1]
  XRPD pattern after DVS cycling relative to the same sample prior to DVS analysis: unchanged
[2]; [5]
  DVS weight gain when cycling from 5% to 95% relative humidity: 16.36%
  DVS weight loss upon drying at 5% relative humidity: 0.66%
  DVS weight loss when cycling from 95% to 5% relative humidity: 15.51%
[2]; [6]
  DVS weight gain when cycling from 5% to 95% relative humidity: 13.04%
  DVS weight loss upon drying at 5% relative humidity: 0.6%
  DVS weight loss when cycling from 95% to 5% relative humidity: 13.12%

## NCCOCCOCCNc1ccc2c3c(cccc13)C(=O)N(CCOCCOCCN1C(=O)c3cccc4c(NCCOCCOCCN)ccc(c34)C1=O)C2=O [Form 2, 2,2′-((ethane-1,2-diylbis(oxy))bis(ethane-2,1-diyl))bis(6-((2-(2-(2-aminoethoxy)ethoxy)ethyl)amino)-1H-benzo[de]isoquinoline-1,3(2H)-dione)]
[1]
  XRPD pattern after DVS cycling relative to the same sample prior to DVS analysis: less crystalline
[2]; [6]
  DVS weight gain when cycling from 5% to 95% relative humidity: 7.2%
  DVS weight loss upon drying at 5% relative humidity: 1.44%
  DVS weight loss when cycling from 95% to 5% relative humidity: 14.63%
[4]
  XRPD pattern after heating relative to the same sample before: less crystalline
